From patent US20210214375A1 (LUNDBECK LA JOLLA RESEARCH CENTER, INC., priority 2017, published 2021)

Tests used:
ABHD6 = biological target: T1, ABHD6 (Mus musculus, UniProt Q8R2Y0); experiment: In vitro competitive activity-based protein profiling, mouse brain proteome, ABHD6; assay type: biochemical; conditions: mouse
T1 construct: Brain; from tissue; host or cells: mouse brain proteome
T1 sequence (Q8R2Y0 1-336): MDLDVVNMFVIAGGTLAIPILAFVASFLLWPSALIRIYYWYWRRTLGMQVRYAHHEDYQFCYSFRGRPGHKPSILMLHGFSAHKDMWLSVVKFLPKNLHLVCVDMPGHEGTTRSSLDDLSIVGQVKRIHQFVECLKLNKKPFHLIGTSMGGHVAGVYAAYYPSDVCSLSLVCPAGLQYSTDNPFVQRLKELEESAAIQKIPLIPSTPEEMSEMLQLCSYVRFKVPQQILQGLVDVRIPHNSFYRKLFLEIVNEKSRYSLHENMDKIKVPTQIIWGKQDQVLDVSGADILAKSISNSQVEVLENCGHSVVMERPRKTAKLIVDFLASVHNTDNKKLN
Description: [Worded in the source for another target; this target is reported under the same test.] (§1) Proteomes (human prefrontal cortex or cell membrane fractions) (50 μL, 1.0 mg/mL total protein concentration) were preincubated with varying concentrations of inhibitors at 37° C. After 30 min, FP—Rh or HT-01 (1.0 μL, 50 μM in DMSO) was added and the mixture was incubated for another 30 min at room temperature. Reactions were quenched with SDS loading buffer (15 μL-4×) and run on SDS-PAGE.

MGLL = biological target: T2, MGLL (Mus musculus, UniProt O35678); experiment: In vitro competitive activity-based protein profiling, mouse brain proteome; assay type: biochemical
T2 construct: Brain; from tissue; host or cells: mouse brain proteome
T2 sequence (O35678 1-303): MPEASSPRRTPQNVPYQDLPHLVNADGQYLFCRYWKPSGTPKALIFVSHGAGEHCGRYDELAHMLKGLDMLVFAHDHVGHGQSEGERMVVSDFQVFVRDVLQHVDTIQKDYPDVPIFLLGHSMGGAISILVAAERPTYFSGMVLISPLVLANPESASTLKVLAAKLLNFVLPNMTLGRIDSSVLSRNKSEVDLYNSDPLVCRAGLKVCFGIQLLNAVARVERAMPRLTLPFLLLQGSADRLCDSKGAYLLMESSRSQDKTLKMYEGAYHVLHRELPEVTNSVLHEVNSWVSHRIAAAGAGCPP
Description: [Worded in the source for another species; this species is reported under the same test.] as §1

MAGL = biological target: T3, MAGL (Mus musculus, UniProt O35678); experiment: Mouse brain proteomes from inhibitor treated mice (oral gavage, brain proteomes analyzed 4 h after administration); assay type: in vivo, mouse (C57Bl/6J); conditions: brain proteome 4 h after administration, read-out: % Inh 5 mg/kg MGLL (Mouse)
T3 construct: from tissue; host or cells: brain of wild-type C57Bl/6J mice
T3 sequence (O35678 1-303): T2 sequence (O35678 1-303)
Procedure, shortened: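 Wild-type C57Bl/6J mice dosed orally in polyethylene glycol vehicle; brains removed 4 h post-dose and brain proteomes prepared and analysed for MAGL and serine hydrolase activity by previously established methods.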

CC(=O)N1CCC2(CC1)CN(c1cc(C(F)(F)F)ccc1CN1CCN(C(=O)OC(C(F)(F)F)C(F)(F)F)CC1)C2 [Example 199, 1,1,1,3,3,3-Hexafluoropropan-2-yl 4-(2-(7-acetyl-2,7-diazaspiro[3.5]nonan-2-yl)-4-(trifluoromethyl)benzyl)piperazine-1-carboxylate]
IC50 (ABHD6): > 1000 nM | IC50 (MGLL): < 100 nM | inhibition at 5 mg/kg (MAGL): ≥ 75%

CCN1CCN(c2cccc(C(F)(F)F)c2CN2CC3(CCN(C(=O)OC(C(F)(F)F)C(F)(F)F)CC3)C2)CC1 [Example 54, 1,1,1,3,3,3-Hexafluoropropan-2-yl 2-(2-(4-ethylpiperazin-1-yl)-6-(trifluoromethyl)benzyl)-2,7-diazaspiro[3.5]nonane-7-carboxylate]
IC50 (ABHD6): > 1000 nM | IC50 (MGLL): < 100 nM | inhibition at 5 mg/kg (MAGL): ≤ 25%

CS(=O)(=O)N1CCC2(CCN(c3ccccc3CN3CCN(C(=O)OC(C(F)(F)F)C(F)(F)F)CC3)C2)C1 (stereo not drawn) [Example 165, 1,1,1,3,3,3-Hexafluoropropan-2-yl 4-(2-(7-(methylsulfonyl)-2,7-diazaspiro[4.4]nonan-2-yl)benzyl)piperazine-1-carboxylate]
IC50 (ABHD6): > 1000 nM | IC50 (MGLL): < 100 nM | inhibition at 5 mg/kg (MAGL): ≥ 75%

CS(=O)(=O)N1CCC2(CCN(c3cccc(Cl)c3CN3CC4(CCN(C(=O)OC(C(F)(F)F)C(F)(F)F)CC4)C3)CC2)C1 [Example 61, 1,1,1,3,3,3-Hexafluoropropan-2-yl 2-(2-chloro-6-(2-(methylsulfonyl)-2,8-diazaspiro[4.5]decan-8-yl)benzyl)-2,7-diazaspiro[3.5]nonane-7-carboxylate]
IC50 (ABHD6): 100 to 1000 nM | IC50 (MGLL): < 100 nM | inhibition at 5 mg/kg (MAGL): 25 to 75%

CC(=O)N1CC2(CCN(c3cc(Cl)ccc3CN3CCN(C(=O)OC(C(F)(F)F)C(F)(F)F)CC3)CC2)C1 [Example 213, 1,1,1,3,3,3-Hexafluoropropan-2-yl 4-(2-(2-acetyl-2,7-diazaspiro[3.5]nonan-7-yl)-4-chlorobenzyl) piperazine-1-carboxylate]
IC50 (ABHD6): > 1000 nM | IC50 (MGLL): < 100 nM | inhibition at 5 mg/kg (MAGL): ≥ 75%

CS(=O)(=O)N1CC2(CCN(c3ccccc3CN3CCN(C(=O)OC(C(F)(F)F)C(F)(F)F)CC3)C2)C1 [Example 167, 1,1,1,3,3,3-Hexafluoropropan-2-yl 4-(2-(2-(methylsulfonyl)-2,6-diazaspiro[3.4]octan-6-yl)benzyl)piperazine-1-carboxylate]
IC50 (ABHD6): > 1000 nM | IC50 (MGLL): < 100 nM | inhibition at 5 mg/kg (MAGL): ≥ 75%

O=C(OC(C(F)(F)F)C(F)(F)F)N1CCC2(CCN(Cc3ccc(C(F)(F)F)cc3N3CCC(F)CC3)CC2)C1 [Example 192, 1,1,1,3,3,3-Hexafluoropropan-2-yl 8-(2-(4-fluoropiperidin-1-yl)-4-(trifluoromethyl)benzyl)-2,8-diazaspiro[4.5]decane-2-carboxylate]
IC50 (ABHD6): > 1000 nM | IC50 (MGLL): < 100 nM | inhibition at 5 mg/kg (MAGL): 25 to 75%

CS(=O)(=O)N1CCC2(CCN(c3cc(C(F)(F)F)ccc3CN3CCN(C(=O)OC(C(F)(F)F)C(F)(F)F)CC3)C2)CC1 [Example 196, 1,1,1,3,3,3-Hexafluoropropan-2-yl 4-(2-(8-(methylsulfonyl)-2,8-diazaspiro[4.5]decan-2-yl)-4-(trifluoromethyl)benzyl)piperazine-1-carboxylate]
IC50 (ABHD6): > 1000 nM | IC50 (MGLL): < 100 nM | inhibition at 5 mg/kg (MAGL): ≤ 25%

O=C(OC(C(F)(F)F)C(F)(F)F)N1CCC2(CCN(Cc3ccc(Cl)cc3N3CCCCC3)CC2)C1 [Example 191, 1,1,1,3,3,3-Hexafluoropropan-2-yl 8-(4-chloro-2-(piperidin-1-yl)benzyl)-2,8-diazaspiro[4.5]decane-2-carboxylate]
IC50 (ABHD6): > 1000 nM | IC50 (MGLL): < 100 nM | inhibition at 5 mg/kg (MAGL): ≥ 75%

O=C(OC(C(F)(F)F)C(F)(F)F)N1CCC2(CCN(Cc3ccc(Cl)cc3N3CCC(F)CC3)CC2)C1 [Example 28, 1,1,1,3,3,3-Hexafluoropropan-2-yl 8-(4-chloro-2-(4-fluoropiperidin-1-yl)benzyl)-2,8-diazaspiro[4.5]decane-2-carboxylate]
IC50 (ABHD6): > 1000 nM | IC50 (MGLL): < 100 nM | inhibition at 5 mg/kg (MAGL): ≥ 75%
